Entries after “also recorded” stand apart in the source; their conditions may differ.
Legend:
HL-60 cells [1] = assay: FACS analysis of cell surface markers on HL-60 cells; type: cell-based, human
Protocol: Calcium was removed from cultured cells by two methods.
The second method involved washing the cells extensively in calcium-free RPMI medium, and culturing them in the same calcium-free medium supplemented with serum that had been dialyzed against calcium-free phosphate-buffered saline.
The calmodulin kinase inhibitors KN-62 (20 uM) or KT-5926 (1 uM) was added to HL-60 cells in the presence of 188 ng/ml A23187. Twenty four hours later the level of CD80 was analyzed.
Thapsigargin was added to cultured human peripheral blood monocytes and HL-60 cells in concentrations ranging from 0 to 1000 nM. Cells were harvested 24 hours later and evaluated for the acquisition of ADC immunophenotypic characteristics by FACS analysis.
Cells were harvested after three days, irradiated (3000R), then FACS analyzed or cocultured in graded numbers with freshly prepared naive (CD45RO negative) T lymphocytes. Allosensitization was assessed by pulsing at day 4 with ^3H-TdR and harvesting 18 hours later.

[2] = tested on: human peripheral blood monocytes; assay: FACS analysis of cell surface markers on cultured peripheral blood monocytes; type: cell-based; conditions: for effect of agent on ionophore-induced activated myeloid dendritic cell phenotype: added to calcium ionophore treatment; for induction of activated myeloid dendritic cell phenotype (CD80 and CD83 expression): 20-40 hours, wide dose range, alone or in combination
HL-60 cells [3] = assay: FACS analysis of cell surface markers on HL-60 cells; type: cell-based, human; remark: listed apart in the source
WEHI-3 = assay: Costimulatory molecule expression on mouse myeloid leukemia line; type: cell-based; conditions: following calcium mobilization
Text: Myeloid leukemia cell lines display marked upregulation of molecules linked to antigen-presentation and acquire increased T cell sensitizing capacity following calcium mobilization with either calcium ionophore or thapsigargin.

monocytes = assay: Calcium-chelation luminescence spectrophotometry of intracellular calcium flux; type: cell-based, human; conditions: indol-loaded monocytes; calcium ionophore 180-750 ng/ml
Protocol: Calcium-chelation luminescence spectrophotometry was utilized to measure intracellular calcium fluxes in monocytes. Monoytes were incubated with 5 uM/ml indol, a calcium chelating agent which emits fluorescence at different wavelengths (405 or 480 nm) depending on whether or not it is bound to cycloplasmic calcium. Increased calcium mobilization causes relative shifts in emission from one wavelength to the other. After 30 minute incubation with indol, monocytes were washed, pulsed with a variety of agents such as calcium ionophore, virus, f-MET-LEU-PHE, or LPS. To measure calcium fluxes at subsequent time intervals, cells were stimulated with a 355 nm wavelength beam, and fluorescence emission measured at 405 and 480 nm.

O=C(O)CN(CCN(CC(=O)O)CC(=O)O)CC(=O)O [EDTA]
suppression of ionophore-induced CD80/CD86 (HL-60 cells [1]; 0.25 uM EDTA): suppressive effects rapidly diminished
suppression of ionophore-induced CD80/CD86 (HL-60 cells [1]; 0.5 uM EDTA): Almost identical suppression
diminution of ionophore-induced CD86 levels (HL-60 cells [1]; 1 uM EDTA): more than 85%
suppression of ionophore-induced CD80 upregulation (HL-60 cells [1]; 1 uM EDTA): 100%

trifluoperazine dimaleate [TpD]
effect on CD40, HLA-DR and HLA-ABC ([2]; TpD): significant suppressive effects
inhibition of CD80 ([2]; TpD 10 uM (optimal)): over 50%
inhibition of CD86 ([2]; TpD 10 uM (optimal)): over 50%
effect of agent on ionophore-induced activated myeloid dendritic cell phenotype [2]: inhibited at least some of the ionophore's effects
inhibition of ionophore-induced up-regulation of CD80 (HL-60 cells [3]; TpD 10 uM (optimal), A23187 188 ng/ml, 24 hours): over 90%

rhGM-CSF: recombinant human GM-CSF
effect of agent on ionophore-induced activated myeloid dendritic cell phenotype [2]: enhanced CD14 downregulation and upregulation of costimulatory, MHC, and other molecule expression
effect on HL-60 phenotype (HL-60 cells [3]; rhGM-CSF alone): little effect alone

C/C=C(/C)C(=O)O[C@H]1C(C)=C2[C@H]([C@@H]1OC(=O)CCCCCCC)[C@@](C)(OC(C)=O)C[C@H](OC(=O)CCC)[C@@]1(O)[C@H]2OC(=O)[C@@]1(C)O [thapsigargin]
upregulation of CD80, CD86, CD40, HLA-DR, HLA-ABC, ICAM-1 and CD83 as magnitude of that with optimal (750 ng/ml) A23187 ([2]; thapsigargin 750 nM, 24 hours): about 50%
CD14 downregulation, effectiveness relative to ionophore ([2]; thapsigargin, 24 hours): about 75%
dose giving optimal response (HL-60 cells [1]; 24 hours, range 0 to 1000 nM): 250 nM
levels of CD80, CD86 and ICAM-1 relative to those observed with ionophore (HL-60 cells [1]; thapsigargin 250 nM, 24 hours): 50-75%
expression of CD83, ICAM-1, B7.1 and B7.2 (HL-60 cells [3]; optimal doses, within 20 hours): uniform de novo expression of CD83, ICAM-1, B7.1, and B7.2
costimulatory molecule expression (WEHI-3): markedly increased costimulatory molecule expression

NCCCCCCNS(=O)(=O)c1cccc2c(Cl)cccc12 [W-7]
effect of agent on ionophore-induced activated myeloid dendritic cell phenotype [2]: inhibited at least some of the ionophore's effects
inhibition of ionophore-induced CD80 expression (HL-60 cells [3]; W-7 50 uM (optimal), A23187 188 ng/ml, 24 hours): over 75%

f-MET-LEU-PHE
induction of activated myeloid dendritic cell phenotype (CD80 and CD83 expression) [2]: do not induce monocytes to express the phenotype of activated myeloid dendritic cells; also recorded: does not induce that phenotype
intracellular calcium flux / mobilization (monocytes): only a brief calcium flux of much lower magnitude

CN[C@@H]1C[C@H]2O[C@@](C)([C@@H]1OC)n1c3ccccc3c3c4c(c5c6ccccc6n2c5c31)C(=O)NC4 [staurosporine]
effect of agent on ionophore-induced activated myeloid dendritic cell phenotype [2]: enhanced CD14 downregulation and upregulation of costimulatory, MHC, and other molecule expression

CO[C@H]1[C@@H](OC)C[C@H](C)[C@@H](OC)C2=CC(=O)C=C(NC(=O)/C(C)=C/C=C\[C@H](OC)[C@@H](OC(N)=O)/C(C)=C/[C@@H]1C)C2=O [herbimycin A]
effect of agent on ionophore-induced activated myeloid dendritic cell phenotype [2]: inhibited at least some of the ionophore's effects

B1: rhIL-1 alpha: recombinant human IL-1 alpha (protein, UniProt P01583 113-271, looked up)
Interleukin-1 alpha: SAPFSFLSNVKYNFMRIIKYEFILNDALNQSIIRANDQYLTAAALHNLDEAVKFDMGAYKSSKDDAKITVILRISKTQLYVTAQDEDQPVLLKEMPEIPKTITGSETNLLFFWETHGTKNYFTSVAHPNLFIATKQDYWVCLAGGPPSITDFQILENQA
effect of agent on ionophore-induced activated myeloid dendritic cell phenotype [2]: little or no effect

B2: rhIL-10: recombinant human IL-10 (protein, UniProt P22301 19-178, looked up)
Interleukin-10: SPGQGTQSENSCTHFPGNLPNMLRDLRDAFSRVKTFFQMKDQLDNLLLKESLLEDFKGYLGCQALSEMIQFYLEEVMPQAENQDPDIKAHVNSLGENLKTLRLRLRRCHRFLPCENKSKAVEQVKNAFNKLQEKGIYKAMSEFDIFINYIEAYMTMKIRN
effect of agent on ionophore-induced activated myeloid dendritic cell phenotype [2]: inhibited at least some of the ionophore's effects

B3: MIP-1-alpha: chemokine inducing monocyte chemotaxis (protein, UniProt P10147 24-92, looked up)
C-C motif chemokine 3: SLAADTPTACCFSYTSRQIPQNFIADYFETSSQCSKPGVIFLTKRSRQVCADPSEEWVQKYVSDLELSA
induction of activated myeloid dendritic cell phenotype (CD80 and CD83 expression) [2]: do not induce monocytes to express the phenotype of activated myeloid dendritic cells

B4: RANTES: chemokine inducing monocyte chemotaxis (protein, UniProt P13501 24-91, looked up)
C-C motif chemokine 5: SPYSSDTTPCCFAYIARPLPRAHIKEYFYTSGKCSNPAVVFVTRKNRQVCANPEKKWVREYINSLEMS
induction of activated myeloid dendritic cell phenotype (CD80 and CD83 expression) [2]: do not induce monocytes to express the phenotype of activated myeloid dendritic cells

B5: rhIL-12: recombinant human IL-12 (protein, UniProt P29459 23-219; P29460 23-328, looked up)
Interleukin-12 subunit alpha: RNLPVATPDPGMFPCLHHSQNLLRAVSNMLQKARQTLEFYPCTSEEIDHEDITKDKTSTVEACLPLELTKNESCLNSRETSFITNGSCLASRKTSFMMALCLSSIYEDLKMYQVEFKTMNAKLLMDPKRQIFLDQNMLAVIDELMQALNFNSETVPQKSSLEEPDFYKTKIKLCILLHAFRIRAVTIDRVMSYLNAS
Interleukin-12 subunit beta: IWELKKDVYVVELDWYPDAPGEMVVLTCDTPEEDGITWTLDQSSEVLGSGKTLTIQVKEFGDAGQYTCHKGGEVLSHSLLLLHKKEDGIWSTDILKDQKEPKNKTFLRCEAKNYSGRFTCWWLTTISTDLTFSVKSSRGSSDPQGVTCGAATLSAERVRGDNKEYEYSVECQEDSACPAAEESLPIEVMVDAVHKLKYENYTSSFFIRDIIKPDPPKNLQLKPLKNSRQVEVSWEYPDTWSTPHSYFSLTFCVQVQGKSKREKKDRVFTDKTSATVICRKNASISVRAQDRYYSSSWSEWASVPCS
effect of agent on ionophore-induced activated myeloid dendritic cell phenotype [2]: enhanced CD14 downregulation and upregulation of costimulatory, MHC, and other molecule expression

B6: rhIFN-gamma: recombinant human interferon gamma (protein, UniProt P01579 24-161, looked up)
Interferon gamma: QDPYVKEAENLKKYFNAGHSDVADNGTLFLGILKNWKEESDRKIMQSQIVSFYFKLFKNFKDDQSIQKSVETIKEDMNVKFFNSNKKKRDDFEKLTNYSVTDLNVQRKAIHELIQVMAELSPAAKTGKRKRSQMLFRG
effect of agent on ionophore-induced activated myeloid dendritic cell phenotype [2]: enhanced CD14 downregulation and upregulation of costimulatory, MHC, and other molecule expression
HLA-DR expression (HL-60 cells [1]; agent alone): induces HLA-DR expression

From patent publication US6358736B1, “Method for increasing the antigen presenting ability of leukemia cells” (The United States of America as represented by the …, priority 1995, dated 2002)
